Data published in BigSolDB 2.1.

COC(=O)/C=C/C(=O)OC
Conditions	solubility (mole fraction)
in ethanol, 289.95 K	0.00328
in ethanol, 294.45 K	0.00465
in ethanol, 297.55 K	0.00607
in ethanol, 303.15 K	0.00908
in ethanol, 307.3 K	0.0122
in ethanol, 311.1 K	0.0157
in ethanol, 314.75 K	0.0199
in ethanol, 318.65 K	0.0253
in ethanol, 322.55 K	0.0326
in ethanol, 327.35 K	0.0431
in ethanol, 331.85 K	0.058
in ethanol, 336.05 K	0.0751
in isopropanol, 295.8 K	0.00533
in isopropanol, 300.95 K	0.00748
in isopropanol, 304.35 K	0.0097
in isopropanol, 306.7 K	0.0117
in isopropanol, 309.85 K	0.0148
in isopropanol, 312.55 K	0.0183
in isopropanol, 316.85 K	0.025
in isopropanol, 320 K	0.0318
in isopropanol, 322.8 K	0.0396
in isopropanol, 326.25 K	0.0486
in isopropanol, 329.75 K	0.0629
in isopropanol, 332.85 K	0.0785
in isopropanol, 335.8 K	0.0997
in methanol, 297.45 K	0.00749
in methanol, 301 K	0.00948
in methanol, 305.55 K	0.0122
in methanol, 309.17 K	0.0152
in methanol, 312.85 K	0.0189
in methanol, 316.45 K	0.0231
in methanol, 319.37 K	0.0279
in methanol, 322.28 K	0.0335
in methanol, 325.93 K	0.04
in methanol, 329.15 K	0.0491
in methanol, 332.3 K	0.06
in methanol, 337.65 K	0.081
in n-propanol, 295.2 K	0.00504
in n-propanol, 299.95 K	0.00668
in n-propanol, 304.35 K	0.00906
in n-propanol, 307.85 K	0.0114
in n-propanol, 310.7 K	0.0138
in n-propanol, 313.2 K	0.0174
in n-propanol, 318.7 K	0.0253
in n-propanol, 323.65 K	0.0369
in n-propanol, 328.95 K	0.0535
in n-propanol, 332.5 K	0.0686
in n-propanol, 335.65 K	0.087
in n-propanol, 338.15 K	0.106
in n-propanol, 341.3 K	0.136
in propylene glycol, 302.75 K	0.000378
in propylene glycol, 307.05 K	0.000797
in propylene glycol, 310.55 K	0.00143
in propylene glycol, 314.25 K	0.00255
in propylene glycol, 316.75 K	0.00366
in propylene glycol, 320.05 K	0.00586
in propylene glycol, 323.25 K	0.00886
in propylene glycol, 327.95 K	0.0149
in propylene glycol, 332.15 K	0.023
in propylene glycol, 337.25 K	0.0349
in propylene glycol, 342.35 K	0.051
in propylene glycol, 347.15 K	0.073
in water, 300.55 K	9.27e-05
in water, 302.6 K	0.000116
in water, 309.85 K	0.000236
in water, 315.45 K	0.000365
in water, 322.4 K	0.000575
in water, 328.05 K	0.000781
in water, 333.25 K	0.000989
in water, 337.05 K	0.00113
in water, 340.65 K	0.00132
in water, 344.45 K	0.00148
